18 compounds from patent US9126984B2, “4-(indol-3-yl)-pyrazole derivatives, pharmaceutical compositions and methods for use” (ITEOS THERAPEUTICS, priority 2013, dated 2015) can be followed below.

pIC50: −log10 of the molar value. Bounds are passed on as bounds.

Data set [1] addresses T1, human recombinant TDO2 enzyme (Homo sapiens, UniProt P48775).
T1 construct: made in house
Put plainly: Assay for TDO2 enzymatic activity determination. In kind it is biochemical. The note with it: human recombinant TDO2, L-Trp 1 mM, room temperature one hour, kynurenine absorbance at 480 nm. As for the experimental part: To measure the TDO2 activity, the reaction mixture contained (final concentrations) potassium phosphate buffer (50 mM, pH 7.5), ascorbic acid (0.25 M), methylene blue (0.125 μM), catalase (40 units/mL, from bovine liver, Sigma), and human recombinant TDO2 enzyme (prepared as described in Dolusic et al. J. Med. Chem.; 2011, 54, 5320-5334; 0.9 μg) without or with the compounds of the present invention embodiments at the indicated concentrations (total volume 112.5 μL). The reaction was initiated by the addition of 37.5 μL of L-Trp (final concentration 1 mM) at room temperature. The reaction was conducted at room temperature during one hour and stopped by the addition of 30 μL of 30% (w/v) trichloroacetic acid.
To convert N-formylkynurenine into kynurenine, the reaction mixture was incubated at 65° C. for 30 min. Then 150 μL of the reaction mixture was mixed with 120 μL, of 2.5% (w/v) 4-(dimethylamino)-benzaldehyde in acetic acid and incubated for 5 min at room temperature. Kynurenine concentrations were determined by measuring the absorbance at 480 nm. A standard curve was made with pure kynurenine. The TDO activity was measured as described above using ten serial concentrations of certain embodiments of the compounds of the present invention. Data were fitted using the Prism software (GraphPad Software, Inc.).

In data set [2] the target is T2, murine mastocytoma P815 cells overexpressing hTDO2 (Homo sapiens, UniProt P48775).
T2 construct: expressed in transfected cells; host or cells: murine mastocytoma P815 cells
Briefly: Cellular assay for TDO2 activity determination. The conditions noted are these: P815 cells overexpressing hTDO2, overnight incubation at 37° C., kynurenine absorbance at 480 nm. The class given is cell-based. As for the experimental part:
The assay was performed in 96-well flat bottom plates seeded with murine mastocytoma P815 cells overexpressing hTDO2 (prepared as described in Pilotte et al., PNAS, 2012, 109(7), 2497-2502), at a concentration of 5×10^4 cells/well in a final volume of 200 μL. To determine TDO or IDO activity, the cells were incubated overnight at 37° C. at 5% CO2 in IMDM (Invitrogen) supplemented with 2% FBS and 2% penicillin/streptomycin in the presence of the compounds of the present invention, at different concentrations.
The plates were then centrifuged 5 min at 1000 rpm, and 100 μL of the supernatant were collected in a conical plate, 30 uL of TCA 30% were added and a further centrifugated at 3000×g for 10 minutes. 100 μL of the supernatant were collected in a flat bottomed plate and 100 μL of 2% (w/v) 4-(dimethylamino)-benzaldehyde in acetic acid and incubated for 5 min at room temperature. Kynurenine concentrations were determined by measuring the absorbance at 480 nm. A standard curve was made with pure kynurenine. The TDO activity was measured as described above using ten serial concentrations of the compounds of the present invention. Data were fitted using the Prism software (GraphPad Software, Inc.).

T2 sequence (P48775 whole entry): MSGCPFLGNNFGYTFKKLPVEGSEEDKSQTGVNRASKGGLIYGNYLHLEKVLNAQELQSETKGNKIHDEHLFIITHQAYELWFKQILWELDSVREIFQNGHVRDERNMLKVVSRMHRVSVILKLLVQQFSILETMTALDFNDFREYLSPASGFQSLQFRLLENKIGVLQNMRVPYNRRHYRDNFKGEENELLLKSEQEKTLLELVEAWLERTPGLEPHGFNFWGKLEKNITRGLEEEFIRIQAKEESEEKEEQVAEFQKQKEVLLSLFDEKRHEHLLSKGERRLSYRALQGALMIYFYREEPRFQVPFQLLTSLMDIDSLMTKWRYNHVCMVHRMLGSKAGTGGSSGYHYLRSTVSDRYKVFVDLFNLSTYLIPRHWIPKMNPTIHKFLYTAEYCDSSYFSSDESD
T1 sequence (P48775 whole entry): as above

For `CC(Cn1cc(-c2c[nH]c3cc(F)ccc23)cn1)C(N)=O` (single isomer, unassigned) [Example 35, 3-(4-(6-fluoro-1H-indol-3-yl)-1H-pyrazol-1-yl)-2-methylpropanamide], the melting point (as a rule, the temperature of the solid-liquid transition) was in the range of 184.5 to 185.5 °C. Also, the pIC50 (as a rule, the negative decadic logarithm of the IC50, by convention in mol/L) in data set [1] was 5.00 to 6.00. Further, the pIC50 in data set [2] was more than 6.00.

Compound `NC(=O)CCn1cc(-c2c[nH]c3cc(F)ccc23)cn1` [Example 7, 3-(4-(6-fluoro-1H-indol-3-yl)-1H-pyrazol-1-yl)propanamide] yielded a melting point of 173.3 to 175 °C. In addition, the pIC50 in data set [1] was more than 6.00. Moreover, the pIC50 in data set [2] is more than 6.00.

The compound `CNCCn1cc(-c2c[nH]c3cc(F)ccc23)cn1` [Example 24, 2-(4-(6-fluoro-1H-indol-3-yl)-1H-pyrazol-1-yl)-N-methylethanamine] returned a melting point of 94.2 to 95.2 °C. In data set [1], the pIC50 was more than 6.00. This compound also gave a pIC50 in data set [2] of 5.00 to 6.00.

In turn, `CS(=O)(=O)CCn1cc(-c2c[nH]c3cc(F)ccc23)cn1` [Example 31, 6-fluoro-3-(1-(2-(methylsulfonyl)ethyl)-1H-pyrazol-4-yl)-1H-indole] registered a melting point of 153.3 to 155.1 °C. The pIC50 in data set [1] is 5.00 to 6.00. The compound also showed a pIC50 in data set [2] of more than 6.00.

With `CS(=O)(=O)CCn1cc(-c2c[nH]c3cc(F)c(F)cc23)cn1` [Example 32, 5,6-difluoro-3-(1-(2-(methylsulfonyl)ethyl)-1H-pyrazol-4-yl)-1H-indole], the melting point was 170.6 to 171.9 °C. Moreover, the pIC50 in data set [1] is 5.00 to 6.00.

As for `Fc1cc2[nH]cc(-c3cnn(CC4CCNCC4)c3)c2cc1F` [Example 44, 5,6-difluoro-3-(1-(piperidin-4-ylmethyl)-1H-pyrazol-4-yl)-1H-indole], the melting point was in the range of 167.1 to 168.9 °C. The pIC50 in data set [1] is 5.00 to 6.00. This compound showed a pIC50 in data set [2] of more than 6.00.

`Fc1ccc2c(-c3cnn(CC4CCOCC4)c3)c[nH]c2c1` [Example 58, 6-fluoro-3-(1-((tetrahydro-2H-pyran-4-yl)methyl)-1H-pyrazol-4-yl)-1H-indole] showed a melting point of 138.9 to 139.6 °C. In addition, the pIC50 in data set [1] is 5.00 to 6.00. This compound gave a pIC50 in data set [2] of 5.00 to 6.00.

`O=S1(=O)CCC(Cn2cc(-c3c[nH]c4cc(F)ccc34)cn2)CC1` [Example 60, 4-((4-(6-fluoro-1H-indol-3-yl)-1H-pyrazol-1-yl)methyl)tetrahydro-2H-thiopyran 1,1-dioxide] had a melting point of 193.1 to 194.1 °C. In data set [1], the pIC50 was 5.00 to 6.00. This compound also had a pIC50 in data set [2] of 5.00 to 6.00.

Compound `Fc1ccc2c(-c3cnn(C4CCNCC4)c3)c[nH]c2c1` [Example 78, 6-fluoro-3-(1-(piperidin-4-yl)-1H-pyrazol-4-yl)-1H-indole] returned a melting point of 240.1 to 241.8 °C. In addition, the pIC50 in data set [1] is 5.00 to 6.00. Also, in data set [2], the pIC50 is more than 6.00.

`O=C(O)CCC(=O)N1CCC(n2cc(-c3c[nH]c4cc(F)ccc34)cn2)CC1` [Example 80, 4-(4-(4-(6-fluoro-1H-indol-3-yl)-1H-pyrazol-1-yl)piperidin-1-yl)-4-oxobutanoic acid] returned a melting point of 226 to 228 °C. Besides, in data set [1], the pIC50 was 4.00 to 5.00.

In turn, `CN(C)CC(=O)N1CCC(n2cc(-c3c[nH]c4cc(F)ccc34)cn2)CC1` [Example 83, 2-(dimethylamino)-1-(4-(4-(6-fluoro-1H-indol-3-yl)-1H-pyrazol-1-yl)piperidin-1-yl)ethanone] came in with a melting point of 193.7 to 196.1 °C. In addition, the pIC50 in data set [1] is 5.00 to 6.00.

As to `O=C(CO)N1CCC(n2cc(-c3c[nH]c4cc(F)ccc34)cn2)CC1` [Example 84, 1-(4-(4-(6-fluoro-1H-indol-3-yl)-1H-pyrazol-1-yl)piperidin-1-yl)-2-hydroxyethanone], the melting point is 99.9 to 102.1 °C. The pIC50 in data set [1] was 5.00 to 6.00.

Take `CC(C)C(=O)N1CCC(n2cc(-c3c[nH]c4cc(F)ccc34)cn2)CC1` [Example 86, 1-(4-(4-(6-fluoro-1H-indol-3-yl)-1H-pyrazol-1-yl)piperidin-1-yl)-2-methylpropan-1-one]: the melting point fell in the range of 210.2 to 211 °C. Also, the pIC50 in data set [1] is 5.00 to 6.00.

Regarding `CC(C)(C)C(=O)N1CCC(n2cc(-c3c[nH]c4cc(F)ccc34)cn2)CC1` [Example 87, 1-(4-(4-(6-fluoro-1H-indol-3-yl)-1H-pyrazol-1-yl)piperidin-1-yl)-2,2-dimethylpropan-1-one], the melting point lay within 231 to 232 °C. Further, in data set [1], the pIC50 is 5.00 to 6.00.

As to `O=C(C1CC1)N1CCC(n2cc(-c3c[nH]c4cc(F)ccc34)cn2)CC1` [Example 88, cyclopropyl(4-(4-(6-fluoro-1H-indol-3-yl)-1H-pyrazol-1-yl)piperidin-1-yl)methanone], the melting point lay in the range of 190.7 to 191.4 °C. In addition, the pIC50 in data set [1] was 5.00 to 6.00.

`CC(=O)N1CCC(n2cc(-c3c[nH]c4cc(F)ccc34)cn2)CC1` [Example 89, 1-(4-(4-(6-fluoro-1H-indol-3-yl)-1H-pyrazol-1-yl)piperidin-1-yl)ethanone]: the melting point was 183.2 to 184.5 °C. Besides, in data set [1], the pIC50 was 5.00 to 6.00. In data set [2], this compound gave a pIC50 of more than 6.00.

`CN(C)C(=O)N1CCC(n2cc(-c3c[nH]c4cc(F)ccc34)cn2)CC1` [Example 90, 4-(4-(6-fluoro-1H-indol-3-yl)-1H-pyrazol-1-yl)-N,N-dimethylpiperidine-1-carboxamide] came in with a melting point of 223 to 224.6 °C. Also, the pIC50 in data set [1] was 5.00 to 6.00.

Turning to `CN1CCC(n2cc(-c3c[nH]c4cc(F)ccc34)cn2)CC1` [Example 91, 6-fluoro-3-(1-(1-methylpiperidin-4-yl)-1H-pyrazol-4-yl)-1H-indole], the melting point lay within 222.8 to 223.7 °C. In addition, the pIC50 in data set [1] is 5.00 to 6.00. This compound also showed a pIC50 in data set [2] of more than 6.00.
